From paper PMC7717600, “Novel [(N-alkyl-3-indolylmethylene)hydrazono]oxindoles arrest cell cycle and induce cell apoptosis by inhibiting CDK2 and Bcl-2: synthesis, biological evaluation and in silico studies” (Journal of Enzyme Inhibition and Medicinal Chemistry, 2020)
Where two headings read alike, the source gives them in different places.

Assays:
HCT-116 = assay: SRB anti-proliferative assay; format: cell-based; conditions: Homo sapiens; HCT-116, SRB, mean ± SE of 3
Method: (§1) All the newly prepared target conjugates (7, 8a–c, 9 and 10a–e) were investigated for the prospective growth inhibitory actions against three different cancer cell lines viz.; A-549, MDA-MB-231, and HCT-116, using the sulforhodamine B colorimetric (SRB) assay. Staurosporine, a clinically used antitumor drug, was co-assayed as a reference agent for the experiment.
(§2) Examination of the cytotoxic activity for the target conjugates was carried out in accordance with the SRB colorimetric assay protocol, as described previously.
(§3) In vitro anti-proliferative activity assay
(§4) Cells at a concentration of 0.50 x
(§5) Sulfo-Rhodamine-B stain (SRB) assay.
(§6) cell to the wall of the plate.
(§7) wells were prepared for each individual dose).
(§8) Unbound dye was removed by four

MDA-MB-231 = assay: SRB anti-proliferative assay; format: cell-based; conditions: Homo sapiens; MDA-MB-231, SRB, mean ± SE of 3
Method: as §1, §2, §3, §4, §5, §6, §7, §8

RXF 393 = conditions: for TGI: RXF 393
U251 = conditions: for TGI: U251
UACC-257 = conditions: for TGI: UACC-257
NCI-H226 = conditions: for TGI: NCI-H226
OVCAR-8 = conditions: for TGI: OVCAR-8
NCI-H460 = assay: NCI SRB screening; format: cell-based, human
MCF7 = conditions: for TGI: MCF7
SW-620 = conditions: for TGI: SW-620
SNB-19 = conditions: for TGI: SNB-19
PC-3 = assay: NCI SRB screening; format: cell-based, human
HOP-92 = conditions: for TGI: HOP-92
BT-549 = conditions: for TGI: BT-549
UACC-62 = conditions: for TGI: UACC-62
LOX IMVI = assay: NCI SRB screening; format: cell-based, human
[1] = SK-OV-3, listed as D - 795311 / 1

CCCn1cc(C=NN=C2C(=O)Nc3ccc(C)cc32)c2ccccc21 [Compound 8a]
IC50 (HCT-116): 2.6 ± 0.17 µM | IC50 (MDA-MB-231): 4.7 ± 0.28 µM | GI50 (MOLT-4; MOLT-4): 0.68 µM | TGI (MOLT-4; MOLT-4): 4.54 µM | GI % (MOLT-4; MOLT-4, 10 μM): 110% | Growth Percent (MOLT-4; MOLT-4, 1.00E-5 Molar): -9.90% | TGI (MOLT-4; MOLT-4, listed as D - 795311 / 1): 4.54E-6 Molar | TGI (NCI/ADR-RES): 89.90 µM | GI % (NCI/ADR-RES; 10 μM): 24% | Growth Percent (NCI/ADR-RES; 1.00E-5 Molar): 76.32% | TGI (NCI/ADR-RES; listed as D - 795311 / 1): 8.99E-5 Molar | TGI (RXF 393): 7.94 µM | GI % (RXF 393; RXF 393, 10 μM): 89% | Growth Percent (RXF 393; RXF 393, 1.00E-5 Molar): 11.38% | TGI (RXF 393; listed as D - 795311 / 1): 7.94E-6 Molar | TGI (U251): 17.3 µM | GI % (U251; U251, 10 μM): 60% | Growth Percent (U251; U251, 1.00E-5 Molar): 39.96% | TGI (U251; listed as D - 795311 / 1): 1.73E-5 Molar | TGI (UACC-257): 66.60 µM | GI % (UACC-257; UACC-257, 10 μM): 41% | Growth Percent (UACC-257; UACC-257, 1.00E-5 Molar): 58.80% | TGI (UACC-257; listed as D - 795311 / 1): 6.66E-5 Molar | TGI (NCI-H226): 20.6 µM | Growth Percent (NCI-H226; NCI-H226, 1.00E-5 Molar): 92.04% | TGI (NCI-H226; listed as D - 795311 / 1): 2.06E-5 Molar | TGI (SK-OV-3; SK-OV-3): 67.10 µM | GI % (SK-OV-3; SK-OV-3, 10 μM): 12% | Growth Percent (SK-OV-3; SK-OV-3, 1.00E-5 Molar): 88.36% | GI50 (SK-OV-3; [1]): 11.7 µM | TGI (SK-OV-3; [1]): 6.71E-5 Molar | TGI (HS 578T): >100 µM | GI % (HS 578T; 10 μM): 26% | Growth Percent (HS 578T; 1.00E-5 Molar): 74.02% | TGI (HS 578T; listed as D - 795311 / 1): > 1.00E-4 Molar | TGI (OVCAR-8): >100 µM | GI % (OVCAR-8; OVCAR-8, 10 μM): 53% | Growth Percent (OVCAR-8; OVCAR-8, 1.00E-5 Molar): 47.49% | TGI (OVCAR-8; listed as D - 795311 / 1): > 1.00E-4 Molar | GI50 (NCI-H460; Homo sapiens, NCI-H460): 2.17 µM | TGI (NCI-H460; NCI-H460): 10.6 µM | GI % (NCI-H460; NCI-H460, 10 μM): 68% | Growth Percent (NCI-H460; NCI-H460, 1.00E-5 Molar): 32.08% | TGI (NCI-H460; NCI-H460, listed as D - 795311 / 1): 1.06E-5 Molar | TGI (MCF7): 15.50 µM | GI % (MCF7; MCF7, 10 μM): 91% | Growth Percent (MCF7; MCF7, 1.00E-5 Molar): 8.92% | TGI (MCF7; listed as D - 795311 / 1): 1.55E-5 Molar | GI % (UO-31; UO-31, 10 μM): 40% | Growth Percent (UO-31; UO-31, 1.00E-5 Molar): 60.00% | TGI (UO-31; UO-31, listed as D - 795311 / 1): 6.18E-5 Molar | TGI (SW-620): 35.3 µM | GI % (SW-620; SW-620, 10 μM): 64% | Growth Percent (SW-620; SW-620, 1.00E-5 Molar): 36.69% | TGI (SW-620; listed as D - 795311 / 1): 3.53E-5 Molar | TGI (SNB-19): >100 µM | GI % (SNB-19; SNB-19, 10 μM): 37% | Growth Percent (SNB-19; SNB-19, 1.00E-5 Molar): 63.34% | TGI (SNB-19; listed as D - 795311 / 1): > 1.00E-4 Molar | GI50 (PC-3; Homo sapiens, PC-3): 1.83 µM | TGI (PC-3; PC-3): 5.17 µM | GI % (PC-3; PC-3, 10 μM): 82% | Growth Percent (PC-3; PC-3, 1.00E-5 Molar): 17.96% | TGI (PC-3; PC-3, listed as D - 795311 / 1): 5.17E-6 Molar | TGI (HOP-92): 6.57 µM | GI % (HOP-92; HOP-92, 10 μM): 63% | Growth Percent (HOP-92; HOP-92, 1.00E-5 Molar): 37.42% | TGI (HOP-92; listed as D - 795311 / 1): 6.57E-6 Molar | GI50 (SR): 0.52 µM | TGI (SR): 8.72 µM | GI % (SR; 10 μM): 89% | Growth Percent (SR; 1.00E-5 Molar): 11.60% | TGI (SR; listed as D - 795311 / 1): 8.72E-6 Molar | TGI (BT-549): 6.33 µM | GI % (BT-549; BT-549, 10 μM): 37% | Growth Percent (BT-549; BT-549, 1.00E-5 Molar): 63.53% | TGI (BT-549; listed as D - 795311 / 1): 6.33E-6 Molar | TGI (UACC-62): 12.10 µM | GI % (UACC-62; UACC-62, 10 μM): 60% | Growth Percent (UACC-62; UACC-62, 1.00E-5 Molar): 40.39% | TGI (UACC-62; listed as D - 795311 / 1): 1.21E-5 Molar | TGI (LOX IMVI): 3.06 µM | Growth Percent (LOX IMVI; 1.00E-5 Molar): 4.42% | GI50 (LOX IMVI; Homo sapiens): 1.26 µM | TGI (LOX IMVI; listed as D - 795311 / 1): 3.06E-6 Molar
